Consider 42 compounds from patent US12492194B2, “HPK1 inhibitors” (Janssen Pharmaceutica NV, priority 2019, dated 2025).

Assay [1] deals with T1, full-length human Hpk1 (Homo sapiens, UniProt Q92918).
T1 construct: A recombinant fusion protein consisting of full-length human Hpk1; GST (N)
Kind of assay: HPK1 kinase assay (ADP Glo Kinase Assay). The format is biochemical. The conditions noted are these: full-length human GST-Hpk1, ADP Glo, 75 μM ATP; for IC50: read-out: Hpk1 biochemical (pIC50) (converted). As to the method: Pharmacological Part HPK1 Kinase Assay
A recombinant fusion protein consisting of full-length human Hpk1 with an N-terminal Glutatione S-transferase (GST) tag was produced in a baculovirus/insect cell expression system. GST-Hpk1 protein was purified from cell lysates by glutathione sepharose affinity chromatography. Kinase inhibition was determined using the ADP Glo™ Kinase Assay kit (Promega, V9101). Test compounds were prepared by serial dilution in dimethyl sulfoxide (DMSO) and 0.1 μl of each dilution was spotted onto a 384-well white Proxiplate (Perkin Elmer, 6008289). 8 μl of kinase assay buffer (40 mM Tris pH 7.5, 2 mM dithiothreitol (DTT), 0.05% Bovine Serum Albumin, 5 mM MgCl2) containing Hpk1 protein was transferred to each well and incubated for 30-45 minutes at room temperature. The enzymatic reaction was started by adding 2 μl of kinase assay buffer containing 75 μM ATP. After 120 minutes, the reaction was stopped by adding 3 μl of ADP Glo™ reagent (Promega, V9101) and incubating 45 minutes at room temperature.
A general note: ADP-Glo turns the ADP formed in a reaction into a luminescent signal.

Assay [2] addresses Hpk1 (Homo sapiens, UniProt Q92918). Kind of assay: SLP76 phosphorylation assay (SLP76 pS376 in lysates of HEK293 cells engineered to express Hpk1 and SLP76). Type of assay: cell-based. The settings on record: HEK293 cells expressing Hpk1 and SLP76, 4 hours incubation; for IC50: read-out: pSLP76 (HEK293) (pIC50) (converted). As to the method:
SLP76 Phosphorylation Assay
Hpk1 inhibition in cells was determined by detection of SLP76 phosphorylation at S376 in lysates from HEK293 cells engineered to express Hpk1 and SLP76. Serial dilutions of test compounds were prepared in cell culture medium and 20 μl was transferred into each well of a 96-well plate containing HEK293 cells in 180 μl of culture medium. After incubation for 4 hours at 37° C./5% CO2, the culture medium was removed, plates were put on ice and cells washed with cold Minimal Essential Medium before lysing in 90 μl of cold Mammalian Protein Extraction Reagent (Thermo Scientific, 78501) for 30 minutes on ice. The cell lysates were transferred to another 96-well plate, centrifuged 10 minutes at 3000 rcf (4° C.) and 30 μl transferred to a 96-well High-bind plate (MSD, L15XB-3). After coating overnight at 4° C., the cell lysate was removed, wells were washed with base buffer (TBS, 0.2% Tween-20), and blocking solution (base buffer containing 3% MSD blocker A) was added to each well for 1 hour at room temperature. The blocking solution was removed, the wells were washed with base buffer, and detection antibody (SLP76 pS376) was added in 25 μl base buffer containing 1% MSD blocker A to each well. After a 2 h incubation at room temperature, the detection antibody was removed, wells were washed four times with base buffer, 25 μl SULFO-TAG labeled goat anti-rabbit secondary antibody (MSD, R32AB-1) in base buffer containing 1% MSD blocker A was added to each well and left for 1 hour at room temperature. Wells were washed 4 times with base buffer, 150 μl Read Buffer T was added to each well, and the plates were read in a Mesoscale plate reader (MSD). IC50 values were determined by curve-fitting the electrochemiluminescent signals obtained from the lysates of HEK293 cells expressing Hpk1 and SLP76 treated with test compounds at various concentrations minus the signal obtained from HEK293 cells expressing SLP76 only.

Molecules are shown by their SMILES.

Sequence of Hpk1 (Q92918 whole entry): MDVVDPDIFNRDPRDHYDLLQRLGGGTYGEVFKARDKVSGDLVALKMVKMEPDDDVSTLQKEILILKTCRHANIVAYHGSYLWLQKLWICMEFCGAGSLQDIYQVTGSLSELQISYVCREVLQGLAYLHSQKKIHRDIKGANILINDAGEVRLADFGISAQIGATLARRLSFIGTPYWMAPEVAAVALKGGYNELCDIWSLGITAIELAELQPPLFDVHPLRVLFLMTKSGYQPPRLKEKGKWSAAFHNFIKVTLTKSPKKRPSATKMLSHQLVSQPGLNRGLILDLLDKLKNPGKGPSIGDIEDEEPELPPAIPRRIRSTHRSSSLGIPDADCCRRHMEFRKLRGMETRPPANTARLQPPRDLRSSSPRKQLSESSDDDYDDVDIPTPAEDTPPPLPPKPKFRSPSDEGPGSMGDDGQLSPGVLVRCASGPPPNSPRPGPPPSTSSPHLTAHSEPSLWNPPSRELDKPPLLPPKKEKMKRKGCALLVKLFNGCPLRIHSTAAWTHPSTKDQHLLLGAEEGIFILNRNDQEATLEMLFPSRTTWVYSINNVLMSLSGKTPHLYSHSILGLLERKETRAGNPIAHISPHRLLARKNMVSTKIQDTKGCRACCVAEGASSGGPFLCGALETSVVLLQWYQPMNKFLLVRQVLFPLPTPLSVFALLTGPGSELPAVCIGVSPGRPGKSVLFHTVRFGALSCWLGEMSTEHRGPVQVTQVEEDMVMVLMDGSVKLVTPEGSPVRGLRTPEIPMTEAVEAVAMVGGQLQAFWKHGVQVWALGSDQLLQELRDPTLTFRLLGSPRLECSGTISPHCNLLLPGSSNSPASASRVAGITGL
T1 sequence (Q92918 whole entry, the tested form may be a part): as the sequence (Q92918 whole entry) above

Regarding `CO[C@H]1CC[C@@H](c2ccc(-c3cnc(N)c(-c4ccnc(F)c4)c3)cc2[C@@H]2CCCN2)CC1` [Co. 51], the IC50 in assay [1] was 18.2 nM; in assay [2] it was 550 nM.
For `Nc1ncc(-c2ccc(C3CC4(COC4)C3)c([C@@H]3CCCN3)c2)cc1-c1ccnc(F)c1` [Co. 52], the IC50 was 38.9 nM in assay [1] and 851 nM in assay [2].
Regarding `Nc1ncc(-c2ccc(C3CCOCC3)c([C@@H]3CCCN3)c2)nc1C(F)(F)F` [Co. 53], the IC50 is 15.8 nM in assay [1] and 977 nM in assay [2].
The corresponding values for `Nc1ncc(-c2ccc(C3COC3)c([C@@H]3CCCN3)c2)cc1-c1ccnc(F)c1` [Co. 54] are 457 nM and more than 10000 nM.
As to `Nc1ncc(-c2ccc(C3CCOCC3)c([C@@H]3CCCN3)c2)cc1C1=CCS(=O)(=O)CC1` [Co. 55], the IC50 was 95.5 nM in assay [1] and more than 10000 nM in assay [2].
The corresponding values for `Nc1ncc(-c2ccc(C3CCOCC3)c([C@@H]3CCCN3)c2)cc1-c1cc[nH]c(=O)c1` [Co. 57] are 26.3 nM and more than 10000 nM.
The corresponding values for `N#Cc1ccc(-c2cnc(N)c(-c3ccnc(F)c3)c2)cc1[C@@H]1CCCN1` [Co. 60] are 251 nM and more than 10000 nM.
The corresponding values for `N#Cc1cc(-c2cc(-c3ccc(C4CCOCC4)c([C@@H]4CCCN4)c3)cnc2N)ccn1` [Co. 61] are 34.7 nM and 3980 nM.
Regarding `Nc1ncc(-c2ccc(C3CCOCC3)c([C@@H]3CCCN3)c2)cc1-c1ccc(F)cc1` [Co. 62], the IC50 is 31.6 nM in assay [1] and 1070 nM in assay [2].
The corresponding values for `Nc1ncc(-c2ccc(C3CCOCC3)c([C@@H]3CCCN3)c2)cc1-c1ccnc(C(F)(F)F)c1` [Co. 63] are 58.9 nM and 5370 nM.
Take `[2H]c1cc(-c2cc(-c3ccc(C4CCOCC4)c([C@@H]4CCCN4)c3)cnc2N)ccn1` [Co. 64]: the IC50 in assay [1] was 17 nM; in assay [2] it was 380 nM.
The like results for `[2H]c1cc(-c2cc(-c3ccc(C4CCOCC4)c([C@@H]4CCCN4)c3)cnc2N)cc([2H])n1` [Co. 65] were, in that order, 26.9 nM and 1200 nM.
The corresponding values for `Nc1ncc(-c2ccc(C3CCOCC3)c(C3CCCN3)c2)cc1-c1cc[n+]([O-])cc1` (stereo not drawn) [Co. 66] are 85.1 nM and more than 10000 nM.
The corresponding values for `CN(C)Cc1cc(-c2cnc(N)c(-c3ccnc(N4CCNCC4)c3)c2)ccc1C1CCOCC1` [Co. 67] are 46.8 nM and 1660 nM.
For the compound `Cn1cc(-c2cc(-c3ccc(C4CCOCC4)c([C@@H]4CCCN4)c3)cnc2N)cn1` [Co. 68], the values for the IC50 in assay [1] and in assay [2] were 6.31 nM and 1410 nM, respectively.
The like results for `Cc1cc(-c2cc(-c3ccc(C4CCOCC4)c(CN(C)C)c3)cnc2N)ccn1` [Co. 70] were, in that order, 115 nM and 4370 nM.
The like results for `COc1cc(-c2cc(-c3ccc(C4CCOCC4)c(CN(C)C)c3)cnc2N)ccn1` [Co. 71] were, in that order, 41.7 nM and 2040 nM.
The corresponding values for `CN(C)Cc1cc(-c2cnc(N)c(-c3ccncc3F)c2)ccc1C1CCOCC1` [Co. 72] are 40.7 nM and 2290 nM.
As for `CN(C)Cc1cc(-c2cnc(N)c(-c3ccncc3)c2)ccc1C1CCOCC1` [Co. 73], the IC50 in assay [1] is 42.7 nM; in assay [2] it was 1550 nM.
The corresponding values for `CN(C)Cc1cc(-c2cnc(N)c(-c3ccnc(NCCO)c3)c2)ccc1C1CCOCC1` [Co. 74] are 56.2 nM and 1860 nM.
As for `CN(C)Cc1cc(-c2cnc(N)c(-c3ccnc(NCCCO)c3)c2)ccc1C1CCOCC1` [Co. 75], the figures for the IC50 in assay [1] and in assay [2] were 41.7 nM and 2290 nM, respectively.
The corresponding values for `CN(C)Cc1cc(-c2cnc(N)c(-c3ccccc3)c2)ccc1C1CCOCC1` [Co. 76] are 34.7 nM and 1950 nM.
The corresponding values for `CN(C)Cc1cc(-c2cnc(N)c(-c3ccncn3)c2)ccc1C1CCOCC1` [Co. 77] are 14.1 nM and 2570 nM.
As for `Nc1ncc(-c2ccc(C3CCOCC3)c([C@@H]3COCCN3)c2)cc1Br` [Co. 78], the values for the IC50 in assay [1] and in assay [2] were 8.13 nM and 912 nM, respectively.
The corresponding values for `C[C@H]1CN[C@H](c2cc(-c3cnc(N)c(Br)c3)ccc2C2CCOCC2)CO1` [Co. 79] are 25.7 nM and 794 nM.
The like results for `Nc1ncc(-c2ccc(C3CCOCC3)c([C@@H]3COCCN3)c2)cc1-c1ccncc1` [Co. 80a] were, in that order, 14.5 nM and 851 nM.
Consider `Nc1ncc(-c2ccc(C3CCOCC3)c([C@H]3COCCN3)c2)cc1-c1ccncc1` [Co. 80b], for which the IC50 was 3720 nM in assay [1] and more than 10000 nM in assay [2].
The corresponding values for `Cn1cc(-c2cc(-c3ccc(C4CCOCC4)c([C@@H]4COCCN4)c3)cnc2N)cn1` [Co. 81] are 15.5 nM and 813 nM.
In the case of `Nc1ncc(-c2ccc(C3CCOCC3)c([C@@H]3COCCN3)c2)cc1-c1ccnc(F)c1` [Co. 82], the IC50 is 8.71 nM in assay [1] and 126 nM in assay [2].
`Cn1cc(-c2nc(-c3ccc(C4CCOCC4)c([C@@H]4COCCN4)c3)cnc2N)cn1` [Co. 84]: the IC50 in assay [1] is 25.1 nM; in assay [2], 479 nM.
The like results for `Nc1ncc(-c2ccc(C3CCOCC3)c([C@@H]3COCCN3)c2)cc1Cl` [Co. 85] were, in that order, 38 nM and 1150 nM.
Regarding `Cc1cc(-c2ccc(C3CCOCC3)c([C@@H]3COCCN3)c2)cnc1N` [Co. 86], the IC50 is 120 nM in assay [1] and 3980 nM in assay [2].
The like results for `COc1cc(-c2ccc(C3CCOCC3)c([C@@H]3COCCN3)c2)cnc1N` [Co. 87] were, in that order, 47.9 nM and 1100 nM.
The corresponding values for `Nc1ncc(-c2ccc(C3CCOCC3)c([C@@H]3COCCN3)c2)cc1F` [Co. 88] are 112 nM and 4170 nM.
The corresponding values for `N#Cc1cc(-c2ccc(C3CCOCC3)c([C@@H]3COCCN3)c2)cnc1N` [Co. 89] are 21.4 nM and 851 nM.
For `C[C@H]1CN[C@H](c2cc(-c3cnc(N)c(-c4cnn(C)c4)n3)ccc2C2CCOCC2)CO1` [Co. 90], the IC50 in assay [1] was 35.5 nM; in assay [2], 1230 nM.
As for `C[C@@H]1CN[C@@H](c2cc(-c3cnc(N)c(-c4ccnc(F)c4)c3)ccc2C2CCOCC2)CO1` [Co. 92], the figures for the IC50 in assay [1] and in assay [2] were 1950 nM and more than 10000 nM, respectively.
The corresponding values for `C[C@H]1CN[C@H](c2cc(-c3cnc(N)c(-c4ccnc(F)c4)c3)ccc2C2CCOCC2)CO1` [Co. 94] are 12.9 nM and 575 nM.
Turning to `Nc1ncc(-c2ccc(C3CCOCC3)c([C@@H]3CCCN3)c2)cc1C1CCOCC1` [Co. 95], the IC50 was 43.7 nM in assay [1] and 2240 nM in assay [2].
For `CC(=O)N1CCC(c2cc(-c3ccc(C4CCOCC4)c([C@@H]4CCCN4)c3)cnc2N)CC1` [Co. 96], the “Hpk1 biochemical (pIC50)” value in assay [1] came out at 6.84. In assay [2], the “pSLP76 (HEK293) (pIC50)” value worked out at 5.1.
On to `CS(=O)(=O)N1CCC(c2ccc(-c3cnc(N)c(-c4ccnc(F)c4)c3)cc2[C@@H]2CCCN2)CC1` [Co. 98], for which the IC50 in assay [1] is 26.3 nM; in assay [2], 724 nM.
The corresponding values for `Nc1ncc(-c2ccc(C3CCSCC3)c([C@@H]3CCCN3)c2)cc1-c1ccnc(F)c1` [Co. 99] are 21.4 nM and 646 nM.
